Tests used:
Format in all cases: in vivo
[1] = tested on: rice flatsedge (Cyperus iria); assay: Test F flooded paddy test; design: key: 0 = no effect, 100 = complete control; conditions: Flood
Excerpt: (§1) Plant species in the flooded paddy test consisted of one stand of 9 or 10 water seeded rice seedlings (Rice, W. S. Jap, Oryza sativa cv. ‘Japonica—M202’ or Rice, W. S. Ind, ‘Indica’), and two stands of 3 or 4 transplanted rice seedlings (Oryza sativa cv. ‘Japonica—M202’), Monochoria (Monochoria vaginalis), sedge, umbrella (small-flower umbrella sedge, Cyperus difformis), hardstem bulrush (Scirpus juncoides), redstem (purple redstem, Ammannia coccinea), rice flatsedge (Cyperus iria), bearded sprangletop (Leptochloa fascicularis), barnyardgrass (Echinochloa crus-galli), waterplantain (common waterplantain, Alisma plantago-aquatica), and late watergrass (Echinochloa oryzicola) grown to the 2 to 2.5 leaf stage for testing. Potted plants were grown in a greenhouse with day/night temperature settings of 30/27° C., and supplemental balanced lighting was provided to maintain a 16-hour photoperiod. At time of treatment, test pots were flooded to 3 cm above the soil surface, treated by application of test compounds directly to the paddy water, and then maintained at that water depth for the duration of the test. Effects of treatments on rice and weeds were visually evaluated by comparison to untreated controls after 21 d. Plant response ratings, summarized in Table F, are based on a scale of 0 to 100 where 0 is no effect and 100 is complete control. A dash (-) response means no test result.

[2] = tested on: sedge, umbrella (small-flower umbrella sedge, Cyperus difformis); assay: Test F flooded paddy test; design: key: 0 = no effect, 100 = complete control; conditions: Flood
Excerpt: as §1

[3] = tested on: transplanted rice seedlings (Oryza sativa cv. ‘Japonica—M202’); assay: Test F flooded paddy test; design: key: 0 = no effect, 100 = complete control; conditions: Flood
Excerpt: as §1

[4] = tested on: bearded sprangletop (Leptochloa fascicularis); assay: Test F flooded paddy test; design: key: 0 = no effect, 100 = complete control; conditions: Flood
Excerpt: as §1

[5] = tested on: barnyardgrass (Echinochloa crus-galli); assay: Test F flooded paddy test; design: key: 0 = no effect, 100 = complete control; conditions: Flood
Excerpt: as §1

[6] = tested on: late watergrass (Echinochloa oryzicola); assay: Test F flooded paddy test; design: key: 0 = no effect, 100 = complete control; conditions: Flood
Excerpt: as §1

[7] = tested on: Monochoria (Monochoria vaginalis); assay: Test F flooded paddy test; design: key: 0 = no effect, 100 = complete control; conditions: Flood
Excerpt: as §1

[8] = tested on: water seeded rice seedlings (Rice, W. S. Jap, Oryza sativa cv. ‘Japonica—M202’); assay: Test F flooded paddy test; design: key: 0 = no effect, 100 = complete control; conditions: Flood
Excerpt: as §1

[9] = tested on: oat, wild (wild oat, Avena fatua); assay: Test C postemergence; conditions: scale 0 to 100, 0 no effect, 100 complete control
Excerpt: (§2) Seeds of plant species selected from blackgrass (Alopecurus myosuroides), ryegrass, Italian (Italian ryegrass, Lolium multiflorum), wheat (winter wheat, Triticum aestivum), Galium (catchweed bedstraw, Galium aparine), corn (Zea mays), crabgrass, large (large crabgrass, Digitaria sanguinalis), foxtail, giant (giant foxtail, Setaria faberii), johnsongrass (Sorghum halepense), lambsquarters (Chenopodium album), morningglory (Ipomoea coccinea), nutsedge, yellow (yellow nutsedge, Cyperus esculentus), pigweed (Amaranthus retroflexus), ragweed (common ragweed, Ambrosia elatior), soybean (Glycine max), barnyardgrass (Echinochloa crus-galli), oilseed rape (Brassica napus), waterhemp (common waterhemp, Amaranthus rudis) and velvetleaf (Abutilon theophrasti) were planted into a blend of loam soil and sand and treated preemergence with test chemicals formulated in a non-phytotoxic solvent mixture which included a surfactant.
(§3) At the same time, plants selected from these crop and weed species and also Kochia (Kochia scoparia), oat, wild (wild oat, Avena fatua), and chickweed (common chickweed, Stellaria media) were planted in pots containing Sunshine Redi-Earth® planting medium comprising spaghnum peat moss, vermiculite, starter nutrients and dolomitic limestone and treated with postemergence applications of test chemicals formulated in the same manner. Plants ranged in height from 2 to 18 cm (1- to 4-leaf stage) for postemergence treatments. Treated plants and controls were maintained in a greenhouse for 13 to 15 d, after which time all species were compared to controls and visually evaluated. Plant response ratings, summarized in Table C, are based on a scale of 0 to 100 where 0 is no effect and 100 is complete control. A dash (-) response means no test result.

[10] = tested on: morningglory (Ipomoea coccinea); assay: Test C postemergence; conditions: scale 0 to 100, 0 no effect, 100 complete control
Excerpt: as §2, §3

[11] = tested on: lambsquarters (Chenopodium album); assay: Test C postemergence; conditions: scale 0 to 100, 0 no effect, 100 complete control
Excerpt: as §2, §3

rice (Oryza sativa) = assay: Test C flooded paddy test; conditions: Flood; for Plant response rating (scale of 0 to 100), Rice: 0 is no effect, 100 is complete control
In short: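 Compound was added directly to paddy water held 3 cm above the soil, with plants at the 2-leaf stage. Injury was scored visually versus untreated controls after 13–15 d greenhouse growth, using a 0–100 scale where 100 means complete control.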

CN1C[C@H](c2ccc(F)c(F)c2)[C@@H](C(=O)Nc2cccc(F)c2F)C1=O [Compound 639, (3S,4S)—N-(2,3-difluorophenyl)-4-(3,4-difluorophenyl)-1-methyl-2-oxo-3-pyrrolidinecarboxamide]
15: Plant response rating: Rice, Transplanted ([3]; 64 g ai/ha)
40: Plant response rating: Rice, Transplanted ([3]; 250 g ai/ha) | Plant response rating: Rice, Water Seed. ([8]; 64 g ai/ha) | Plant response rating, Lambsquarters ([11]; 31 g ai/ha)
100: Plant response rating: Barnyardgrass ([5]; 64 g ai/ha) | Plant response rating: Barnyardgrass ([5]; 125 g ai/ha) | Plant response rating: Barnyardgrass ([5]; 250 g ai/ha) | Plant response rating: Watergrass, Late ([6]; 32 g ai/ha) | Plant response rating: Watergrass, Late ([6]; 64 g ai/ha) | Plant response rating: Watergrass, Late ([6]; 125 g ai/ha) | Plant response rating: Watergrass, Late ([6]; 250 g ai/ha) | Plant response rating: Monochoria ([7]; 125 g ai/ha) | Plant response rating: Monochoria ([7]; 250 g ai/ha)
0: Plant response rating: Flatsedge, Rice ([1]; 32 g ai/ha) | Plant response rating: Flatsedge, Rice ([1]; 64 g ai/ha) | Plant response rating: Flatsedge, Rice ([1]; 125 g ai/ha) | Plant response rating: Flatsedge, Rice ([1]; 250 g ai/ha) | Plant response rating: Sedge, Umbrella ([2]; 32 g ai/ha) | Plant response rating: Sedge, Umbrella ([2]; 64 g ai/ha) | Plant response rating: Sedge, Umbrella ([2]; 125 g ai/ha) | Plant response rating: Sedge, Umbrella ([2]; 250 g ai/ha) | Plant response rating: Rice, Transplanted ([3]; 32 g ai/ha) | Plant response rating: Rice, Water Seeded ([8]; 32 g ai/ha) | Plant response rating, Oat, Wild ([9]; 31 g ai/ha) | Plant response rating, Oat, Wild ([9]; 62 g ai/ha) | Plant response rating, Oat, Wild ([9]; 125 g ai/ha) | Plant response rating, Oat, Wild ([9]; 250 g ai/ha) | Plant response rating, Rice (rice (Oryza sativa); 31 g ai/ha, scale 0 to 100 (0 no effect, 100 complete control), 13 to 15 d) | Plant response rating (scale of 0 to 100), Rice (rice (Oryza sativa); 62 g ai/ha)
90: Plant response rating: Barnyardgrass ([5]; 32 g ai/ha)
85: Plant response rating: Sprangletop, Brdd. ([4]; 32 g ai/ha) | Plant response rating: Sprangletop, Brdd. ([4]; 64 g ai/ha)
50: Plant response rating: Rice, Water Seed. ([8]; 125 g ai/ha)
20: Plant response rating (scale of 0 to 100), Rice (rice (Oryza sativa); 125 g ai/ha) | Plant response rating (scale of 0 to 100), Rice (rice (Oryza sativa); 250 g ai/ha)
70: Plant response rating, Lambsquarters ([11]; 250 g ai/ha)
75: Plant response rating: Rice, Water Seeded ([8]; 250 g ai/ha) | Plant response rating, Morningglory ([10]; 250 g ai/ha) | Plant response rating, Lambsquarters ([11]; 62 g ai/ha)
25: Plant response rating: Rice, Transplanted ([3]; 125 g ai/ha) | Plant response rating, Morningglory ([10]; 62 g ai/ha)
60: Plant response rating, Morningglory ([10]; 125 g ai/ha)
65: Plant response rating: Monochoria ([7]; 32 g ai/ha) | Plant response rating, Lambsquarters ([11]; 125 g ai/ha)
95: Plant response rating: Sprangletop, Brdd. ([4]; 125 g ai/ha)
30: Plant response rating, Morningglory ([10]; 31 g ai/ha)
98: Plant response rating: Sprangletop, Brdd. ([4]; 250 g ai/ha) | Plant response rating: Monochoria ([7]; 64 g ai/ha)

Source: US12077503B2, “Substituted cyclic amides and their use as herbicides” (FMC CORPORATION, priority 2015, dated 2024)
